# Biological target: T1, human B1 receptor (Homo sapiens, UniProt P46663)
# T1 construct: expressed in transfected cells
# T1 sequence (P46663 1-353): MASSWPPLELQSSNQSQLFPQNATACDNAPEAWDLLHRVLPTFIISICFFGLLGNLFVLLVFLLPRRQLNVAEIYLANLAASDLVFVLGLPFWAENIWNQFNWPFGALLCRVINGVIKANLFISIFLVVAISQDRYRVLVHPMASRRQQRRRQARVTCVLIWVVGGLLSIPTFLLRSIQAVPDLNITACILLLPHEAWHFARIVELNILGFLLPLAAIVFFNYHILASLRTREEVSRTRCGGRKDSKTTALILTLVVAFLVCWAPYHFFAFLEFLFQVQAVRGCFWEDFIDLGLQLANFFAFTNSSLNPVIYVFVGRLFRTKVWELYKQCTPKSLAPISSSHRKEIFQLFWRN
# Experiment: In vitro assay of human B1 receptor function using calcium flux (aequorin luminescence)
# Type: cell-based
# Conditions: CHO D-/hB1/Aequorin cells, agonist 20 nM des-Arg10-Kallidin (EC80); read-out: binding IC50's to hB1 receptor function
# Protocol: Activation of the Gq linked B1 receptor results in an increase in intracellular calcium. […] Aequorin is a 21-kDa photoprotein that forms a bioluminescent complex when linked to the chromophore cofactor coelenterazine.
# Following coelenterazine incubation, an automated flash-luminometer platform was used to dispense the B1 antagonist compounds (dissolved in DMSO and diluted with buffer to the desired concentration (final DMSO concentration <1% DMSO)) to the cell plate, a CCD camera situated underneath the cell plate took 12 images of the cell plate at 5 second intervals to determine if there was any agonist activity with the compounds. The hB1 agonist, des-Arg10-Kallidin, was added to the cell plate and another 12 images were recorded to determine the IC50 of the antagonist(s).
row,Compound,IC50
1,"O=C(C[C@@H](NS(=O)(=O)c1cccc(C(F)(F)F)c1)c1ccc(F)cc1)N[C@@H]1CCCc2cc(CN3CCCC3)ccc21 [o, (3R)-3-(4-fluorophenyl)-N-((1R)-6-(1-pyrrolidinylmethyl)-1,2,3,4-tetrahydro-1-naphthalenyl)-3-(((3-(trifluoromethyl)phenyl)sulfonyl)-amino)propanamide]",< 0.01 µM
2,"O=C(C[C@@H](NS(=O)(=O)c1cccc(C(F)(F)F)c1)c1ccccc1)N[C@@H]1CCCc2cc(CN3CCC(F)(F)CC3)ccc21 [t, (3R)-N-((1R)-6-((4,4-difluoro-1-piperidinyl)methyl)-1,2,3,4-tetrahydro-1-naphthalenyl)-3-phenyl-3-(((3-(trifluoromethyl)phenyl)-sulfonyl)amino)propanamide]",< 0.01 µM

# The remaining lines, values ahead:
row,IC50,Compound
1,< 0.01 µM,"O=C(C[C@@H](NS(=O)(=O)c1ccc(Cl)c(Cl)c1)c1ccccc1)NC1CCOc2cc(CN3CCCCC3)ccc21 (some centres unmarked) [Example 1f, 3-(3,4-Dichloro-benzenesulfonylamino)-3-phenyl-N-(7-piperidin-1-ylmethyl-chroman-4-yl)-propionamide]"
2,< 0.01 µM,"O=C(C[C@@H](NS(=O)(=O)c1ccc2ccccc2c1)c1ccccc1)NC1CCc2cc(CN3CCCCC3)ccc21 (some centres unmarked) [Example 5a, 3-(Naphthalen-2-yl-sulfonylamino)-3-phenyl-N-(5-piperidin-1-ylmethyl-indan-1-yl)-propionamide]"

# Biological target: T2, human bradykinin B1 receptor (Homo sapiens, UniProt P46663)
# T2 construct: expressed in transfected cells; host or cells: CHO-d-AQN cells (membranes prepared in-house)
# T2 sequence (P46663 1-353): T1 sequence (P46663 1-353)
# Experiment: Radioligand binding assay for human B1 bradykinin receptor ([3H]des-arg10 kallidin)
# Conditions: membranes of CHO cells expressing human B1 receptor; read-out: binding Ki's to the hB1 receptor
# Protocol: Preparation of membranes expressing human B1 and human B2 bradykinin receptor. Membranes were prepared from CHO-d^−AQN cells stably transfected with human bradykinin B1 receptor cDNA. For large-scale production of membranes, cells were grown in 100 L suspension culture to 1.0E8 cells/mL then harvested using the Viafuge at continuous centrifugation of 1000 g. For pilot studies, cells were grown in 2 L spinner culture and harvested by centrifugation (1900 g, 10 min, 4° C.). […] The resulting cell lysate was centrifuged (1900 g, 10 min, 4° C.), and the crude particulate fraction isolated by centrifugation (142,000 g, 1 h, 4° C.) of the low-speed supernatant. The resulting pellet was resuspended in ⅓ the original lysis buffer volume, homogenized, and recentrifuged as above. The membrane pellet was resuspended by homogenization in storage buffer (25 mM HEPES, pH 7.4, 3 mM MgCl2, 10% (w/v) sucrose and Complete Protease Inhibitor tablets (EDTA-free)). Single-use aliquots were made and flash-frozen in liquid N2 prior to storage at −80° C.
# Radioligand Binding Assay for human B1 and human B2 bradykinin receptor. […] Membranes (50 μL) were added last. […] Nonspecific binding was defined with 2 μM des-Arg^10Leu^9 kallidin. […] The assay mixture was incubated with shaking for 1 hr at RT and then filtered through GF/C plates presoaked in 0.5% polyethyleneimine (Unifilter; Perkin Elmer Life Sciences) using a Filtermate 96-well harvester (Perkin Elmer Life Sciences). […] The plates were sealed and activity read on Topcount (Perkin Elmer Life Sciences) using a count time of 3 min per channel.
# Data analysis. Data was analyzed in XLFit with the four-parameter logistic y=A+((B-A)/(1+((C/x)^D))) and fit with the Levenburg-Marquardt algorithm. Raw cpm were converted to percent of control values prior to analysis (POC=((compound cpm−nonspecfic cpm)/(no-compound cpm−nonspecific cpm)*100)). Ki values were determined from the IC50 using the Cheng-Prusoff equation and Kd values determined by direct saturation binding of the radioligands.
row,Compound,Ki
1,"CC(C)NCc1ccc2c(c1)OCCC2NC(=O)C[C@@H](NS(=O)(=O)c1ccc2ccccc2c1)c1ccccc1 (some centres unmarked) [Example 3, N-[7-(Isopropylamino-methyl)-chroman-4-yl]-3-(naphthalen-2-ylsulfonylamino)-3-phenyl-propionamide]",< 0.1 µM
2,CC(C)N(C)Cc1ccc2c(c1)OCCC2NC(=O)C[C@@H](NS(=O)(=O)c1ccc2ccccc2c1)c1ccccc1 (some centres unmarked) [Example 3b],< 0.1 µM
3,"CCN(Cc1ccc2c(c1)OCCC2NC(=O)C[C@@H](NS(=O)(=O)c1ccc2ccccc2c1)c1ccccc1)C(C)(C)C (some centres unmarked) [Example 3f, N-{7-[(tert-Butyl-ethyl-amino)-methyl]-chroman-4-yl}-3-(naphthalen-2-yl-sulfonylamino)-3-phenyl-propionamide]",< 0.1 µM
4,"C[C@@H]1CC[C@@H](C)N1Cc1ccc2c(c1)OCCC2NC(=O)C[C@@H](NS(=O)(=O)c1ccc2ccccc2c1)c1ccccc1 (stereo partly drawn) [Example 3h, N-[7-(2R, 5R-Dimethyl-pyrrolidin-1-ylmethyl)-chroman-4-yl]-3-(naphthalen-2-yl-sulfonylamino)-3-phenyl-propionamide]",< 0.1 µM
5,"CCN(CC)Cc1ccc2c(c1)OCCC2NC(=O)C[C@@H](NS(=O)(=O)c1ccc2ccccc2c1)c1ccccc1 (some centres unmarked) [Example 3l, N-(7-Diethylaminomethyl-chroman-4-yl)-3-(naphthalen-2-yl-sulfonylamino)-3-phenyl-propionamide]",< 0.1 µM

# Results, then the compound that gave them:
row,Ki,Compound
1,< 0.1 µM,"O=C(C[C@@H](NS(=O)(=O)c1cc(Cl)cc(Cl)c1)c1ccccc1)NC1CCOc2cc(CN3CCCCC3)ccc21 (stereo in doubt) [Example 1h, 3-(3,5-Dichloro-benzenesulfonylamino)-3-phenyl-N-(7-piperidin-1-ylmethyl-chroman-4-yl)-propionamide]"
2,< 0.1 µM,"O=C(C[C@@H](NS(=O)(=O)c1ccc2ccccc2c1)c1ccccc1)NC1CCOc2cc(CN3CCOCC3)ccc21 (stereo in doubt) [Example 3j, N-(7-Morpholin-4-ylmethyl-chroman-4-yl)-3-(naphthalen-2-yl-sulfonylamino)-3-phenyl-propionamide]"
3,< 0.1 µM,"CN1c2cc(CN3CCCCC3)ccc2C(NC(=O)C[C@@H](NS(=O)(=O)c2ccc3ccccc3c2)c2ccccc2)CS1(=O)=O (stereo in doubt) [Example 13, 3-(Naphthalen-2-yl-sulfonylamino)-N-(1-methyl-2,2-dioxo-7-piperidin-1-ylmethyl-1,2,3,4-tetrahydro-2λ^6-benzo[c][1,2]thiazin-4-yl)-3-phenyl-propionamide]"
4,< 0.1 µM,"CN1CCN(Cc2ccc3c(c2)OCCC3NC(=O)C[C@@H](NS(=O)(=O)c2ccc3ccccc3c2)c2ccccc2)CC1 (some centres unmarked) [Example 1a, N-[7-(4-Methyl-piperazin-1-ylmethyl)-chroman-4-yl]-3-(naphthyl-2-ylsulfonylamino)-3-phenyl-propionamide]"
5,< 0.1 µM,"O=C(C[C@@H](NS(=O)(=O)c1ccc2ccccc2c1)c1ccccc1)NC1CCOc2cc(CN3CCCC3)ccc21 (some centres unmarked) [Example 1d, 3-(Naphthalen-2-ylsulfonylamino)-3-phenyl-N-(7-pyrrolidin-1-ylmethyl-chroman-4-yl)-propionamide]"
6,< 0.1 µM,"O=C(C[C@@H](NS(=O)(=O)c1ccc(Cl)c(Cl)c1)c1ccccc1)NC1CCOc2cc(CN3CCCCC3)ccc21 (some centres unmarked) [Example 1f, 3-(3,4-Dichloro-benzenesulfonylamino)-3-phenyl-N-(7-piperidin-1-ylmethyl-chroman-4-yl)-propionamide]"
7,< 0.1 µM,"O=C(C[C@@H](NS(=O)(=O)c1ccc2ccccc2c1)c1ccccc1)NC1CCc2c(CN3CCCCC3)cccc21 (some centres unmarked) [Example 4a, 3-(Naphthalen-2-yl-sulfonylamino)-3-phenyl-N-(4-piperidin-1-ylmethyl-indan-1-yl)-propionamide]"
8,< 0.1 µM,"O=C(C[C@@H](NS(=O)(=O)c1ccc2ccccc2c1)c1ccccc1)NC1CCc2cc(CN3CCCCC3)ccc21 (some centres unmarked) [Example 5a, 3-(Naphthalen-2-yl-sulfonylamino)-3-phenyl-N-(5-piperidin-1-ylmethyl-indan-1-yl)-propionamide]"
